Measurements as given in paper PMC4444576, “Prospective performance evaluation of selected common virtual screening tools. Case study: Cyclooxygenase (COX) 1 and 2” (European Journal of Medicinal Chemistry, 2015).
Like-named read-outs stand apart in the source and are kept apart here.

Columns and labels:
COX [1] = conditions: cited from earlier work
COX [2] = system: COX; set-up: method as in PMID 22053353; conditions: read-out: IC50, oxidation of endocannabinoids; cited from earlier work
[3] = molecular target: T1, ram seminal vesicle COX-1 (Ovis aries, UniProt P05979); test: COX-1 inhibition assay (PGE2 EIA); type: biochemical; conditions: average of at least two independent experiments, triplicates; read-out: IC50 COX-1
T1 construct: ram seminal vesicle COX-1 (1 U) (Sigma–Aldrich); purchased Sigma–Aldrich; host or cells: ram seminal vesicle (tissue of origin)
T1 sequence (P05979 25-600): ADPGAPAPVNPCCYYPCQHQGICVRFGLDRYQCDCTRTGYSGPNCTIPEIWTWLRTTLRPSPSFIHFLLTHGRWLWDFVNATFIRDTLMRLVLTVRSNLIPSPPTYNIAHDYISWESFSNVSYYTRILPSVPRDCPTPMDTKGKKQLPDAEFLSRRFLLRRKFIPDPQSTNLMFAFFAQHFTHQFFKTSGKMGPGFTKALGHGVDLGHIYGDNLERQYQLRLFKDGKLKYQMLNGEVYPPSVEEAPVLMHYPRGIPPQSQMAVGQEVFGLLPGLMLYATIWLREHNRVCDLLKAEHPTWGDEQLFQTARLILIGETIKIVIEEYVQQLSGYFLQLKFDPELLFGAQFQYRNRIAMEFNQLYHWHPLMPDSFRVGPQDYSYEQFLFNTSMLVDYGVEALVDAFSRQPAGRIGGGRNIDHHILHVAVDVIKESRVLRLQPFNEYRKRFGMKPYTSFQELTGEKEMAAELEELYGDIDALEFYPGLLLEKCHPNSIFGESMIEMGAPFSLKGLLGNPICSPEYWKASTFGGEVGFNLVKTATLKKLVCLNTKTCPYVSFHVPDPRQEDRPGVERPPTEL

human recombinant COX-2 = molecular target: T2, human recombinant COX-2 (Homo sapiens, UniProt P35354); test: COX-2 inhibition assay (PGE2 EIA); type: biochemical; conditions: average of at least two independent experiments, triplicates; read-out: IC50 COX-2
T2 construct: purchased Sigma–Aldrich
T2 sequence (P35354 18-604): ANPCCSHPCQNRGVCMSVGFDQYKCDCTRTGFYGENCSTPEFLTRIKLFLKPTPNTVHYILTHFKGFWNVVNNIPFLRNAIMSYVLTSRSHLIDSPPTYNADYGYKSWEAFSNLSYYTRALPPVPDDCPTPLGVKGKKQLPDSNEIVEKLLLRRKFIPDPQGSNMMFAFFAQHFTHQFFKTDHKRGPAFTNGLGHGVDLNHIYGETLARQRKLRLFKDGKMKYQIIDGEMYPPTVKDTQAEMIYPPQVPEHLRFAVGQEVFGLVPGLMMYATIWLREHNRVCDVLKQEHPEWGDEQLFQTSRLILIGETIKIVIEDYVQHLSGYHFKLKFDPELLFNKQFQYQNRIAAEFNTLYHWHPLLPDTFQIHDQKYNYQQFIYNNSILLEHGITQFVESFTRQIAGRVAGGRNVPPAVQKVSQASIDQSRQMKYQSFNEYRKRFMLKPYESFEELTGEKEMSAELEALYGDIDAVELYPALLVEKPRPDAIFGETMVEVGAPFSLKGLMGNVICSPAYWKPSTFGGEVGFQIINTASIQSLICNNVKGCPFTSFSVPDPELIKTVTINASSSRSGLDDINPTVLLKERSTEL

COX [4] = test: Biological testing for COX-inhibiting activity, overall outcome on both isoforms; type: biochemical; conditions: for COX isoform selectivity: COX-1 versus COX-2; for Activity: biological testing of this study
mice and rats = system: mice and rats; set-up: method as in earlier work; conditions: ref 1 (Supporting Information), cited from earlier work
U937 cells = system: U937 cells; set-up: method as in PMID 19958764; conditions: stimulated differentiated U937 cells; cited from earlier work

## CC(C)Cc1ccc([C@@H](C)C(=O)O)cc1 [(R)-ibuprofen]
COX [1]
  PGE2 formation from AA: only inhibited at high concentrations
COX [1]; data from the literature
  Activity: Active [60]
COX [2]
  IC50: ~10 µM

## CCC(c1ccc(O)c(F)c1)C(C)c1ccc(O)c(F)c1 (stereo not drawn) [Bifluranol (1), Bifluranol]
[3]
  IC50: 33 ± 7.3 µM
Human recombinant COX-2
  IC50: > 20 µM
COX [4]
  COX isoform selectivity: COX-1 selective
  Activity: Active
Mice and rats; mice and rats, compared to DES
  anti-prostatic effects: comparable extent to diethylstilbestrol (DES)
Mice and rats
  estrogenicity, lower compared to DES: approximately 8 fold
Mice and rats; unlike DES
  spermatogenesis or fertility: did not impair spermatogenesis or fertility

## COc1cc(/C=C2\CCC/C(=C\c3ccc(O)c(OC)c3)C2=O)ccc1O [Cyqualon (3), Cyqualon]
[3]
  IC50: 1.5 ± 2.1 µM
Human recombinant COX-2
  IC50: > 20 µM
COX [4]
  COX isoform selectivity: COX-1 selective
  Activity: Active
U937 cells
  PGE2-formation: did not prevent PGE2-formation
